In patent publication EP0791056B1, “LIPID-CLEAVAGE ENZYME COMPLEX” (priority 1994, dated 1996):
“And” between values parts separate entries of the source, which are not always exact repeats. Identical values can stand only once.

What was measured:
[1] = test system: LCE; test: LCE assay: cleavage of [14C]-AZT-DMDOPE/AZT-DMDOPE to DMDOP by fractions of human blood cells; type: biochemical; settings: for Spezifische Aktivität: n = 4; for spezifische LCE-Aktivität / AZT-DMDOPE-spaltende Aktivität (spezifische Aktivität des LCE): n = 6; for Km / vmax: membrane fraction 0.068 mg/Ansatz
Procedure: Das Pipettierschema ist in der folgenden Tabelle angegeben. Tabelle
Zur Untersuchung der enzymatischen Spaltung in Abhängigkeit von der Substratkonzentration wurde eine Substratstammlösung von 0.98 nmol [^14C]-AZT-DMDOPE und 0.7 nmol AZT-DMDOPE/80 µl Aqua bidest. im LCE-Assay angesetzt. Die verschiedenen Substratkonzentrationen im LCE-Assay wurden durch kontinuierliche Verdopplung bzw. Halbierung des Volumens an Substratlösung eingestellt. Die Ansätze wurden in Glasröhrchen (5 ml) vorgelegt und durch Zugabe der Substratlösung gestartet. Die Inkubation wurde bei 37 °C im Wasserbad unter leichtem Schütteln durchgeführt.
Die Reaktionsansätze des LCE-Assays wurden nach entsprechender Inkubationszeit dem Wasserbad entnommen, und die Reaktion durch Zugabe von 750 µl 2-Propanol gestoppt. Nach gründlicher Durchmischung wurden die Ansätze anschließend mit 700 µl auf Raumtemperatur erwärmtem n-Heptan versetzt. Die Ansätze wurden erneut für 30 sec gut gemischt und zur Beschleunigung der Phasentrennung in der Minifuge T bei 3200 rpm für 15 min bei Raumtemperatur zentrifugiert. Anschließend wurden 500 µl der oberen Phase (n-Heptan) entnommen und in neue Glasröhrchen (5 ml) mit 10 mg Kieselgel 60 H und 200 µl n-Heptan überführt. Die Ansätze wurden für 30 sec gut durchmischt und zur Sedimentation des Kieselgels für 10 min unter oben genannten Bedingungen zentrifugiert. Vom Überstand wurden anschließend 500 µl entnommen und mit 3 ml Szintillationsflüssigkeit versetzt. Die Messung der Radioaktivität erfolgte für 4 min im Flüssigkeits-Szintillations-Analysator. Zur Bestimmung des Absolutwertes an Radioaktivität wurden 200 µl der Substratlösung mit 3 ml Szintillationsflüssigkeit versetzt und unter gleichen Bedingungen im Flüssigkeits-Szintillations-Analysator gemessen.
Für diese Untersuchungen ist ein Enzym-Assay etabliert, in dem AZT-DMDOPE und [^14C]-AZT-DMDOPE als Substrat eingesetzt wurde (Beispiel 6). […] Bei substratabhängigen Umsetzungen wurde eine Stammlösung von 0.98 nmol [^14C]-AZT-DMDOPE und 0.7 nmol AZT-DMDOPE /80 µl eingesetzt. Die verschiedenen Substratkonzentrationen wurden anschließend durch kontinuierliche Verdopplung bzw. Halbierung des Volumens an Substratlösung eingestellt.
Die Quantifizierung der enzymatischen Spaltung von AZT-DMDOPE wurde durch eine zweistufge Extraktion des Metaboliten DMDOP mit n-Heptan und anschließender Adsorption von Resten des Substrates AZT-DMDOPE an Kieselgel 60 H durchgeführt. Hierbei wurden die Reaktionsansätze mit 2-Propanol und n-Heptan versetzt. wobei sich das im Vergleich zum Substrat unpolare DMDOP in der n-Heptan-Phase anreichert. Die n-Heptan-Phase wurde dann mit Kieselgel 60 H versetzt, wobei Reste des Substrates AZT-DMDOPE adsorbiert werden. Die n-Heptan-Phase wurde anschließend durch Zentrifugation vom Kieselgel separiert, in 3 ml Aqua luma überführt und die in ihr enthaltene Menge an radioaktiv markiertem DMDOP im Flüssigkeits-Szintillations-Analysator über einen Zeitraum von 5 min bestimmt. Aus diesen Ergebnissen konnte die prozentuale Umsetzung des Substrates AZT-DMDOPE zu DMDOP und die spezifische Aktivität des LCE errechnet werden. Als spezifische Aktivität wurde hierbei die Menge an DMDOP bezeichnet die pro 1 mg Protein der eingesetzten Zellpräparationen pro Minute gebildet wurde.
Nach Bestimmung der Proteinkonzentration in Zellhomogenaten, Zytosol- und Membranfraktionen mit Hilfe des Bicinchoninsäure(BCS)-Tests wurden 0.025 - 0.20 mg Protein/Ansatz eingesetzt.
Zur Isolierung der Plasmamembranen wurden 2 ml einer Zellsuspension stimulierter humaner PBL mit einer Zelldichte von 2.5 x 10^8 Zellen/ml durch dreimaliges Einfrieren und Auftauen aufgeschlossen und durch Zentrifugation im Percoll-Dichtegradienten fraktioniert.

[2] = test system: LCE; test: Substrate cleavage by LCE; type: biochemical; settings: cleavage to drug monophosphate and DMDOP
From the text: Das Enzym wird vorzugsweise aus humanen peripheren Blutleukozyten, die zuvor durch PHA oder andere Stimulantien (z.B. Cytokine, etc.) aktiviert wurden, oder aus murinen Nierenzellen isoliert. Aus vorläufigen Untersuchungen ergibt sich ein Molekulargewicht von etwa 120.000 - 160.000, bestimmt nach der SDS-PAGE-Methode. Zellen, die dieses Enzym enthalten, können auf einfache Weise dadurch identifiziert werden, indem sie unter geeigneten Testbedingungen mit einer Lösung von AZT-DMDOPE oder FLT-DMDOPE versetzt werden und die Spaltprodukte AZT-monophosphat bzw. FLT-monophosphat oder DMDOP nachgewiesen werden, beispielsweise durch dünnschichtchromatographische Methoden oder im Fall von radioaktiv markierten Proben durch szintillatographische Verfahren (siehe Beispiele 4 - 7). Im Gegensatz zu den biochemisch verwandten Phospholipasen C oder -D wird das LCE nicht durch bekannte Inhibitoren von Phospholipase C oder -D gehemmt oder durch Aktivatoren von Phospholipase C oder -D aktiviert. Im Gegensatz zu Phospholipase C wird das Enzym durch die Substanz D 609 (Tricyclodecan-9-yl-xanthogenat; C11H15OS2 K) aktiviert, während D 609 Phospholipase C inhibiert.

[3] = humane Monozyten/Makrophagen (stimulierte Monozyten), 37 °C, 2 h
[4] = nichtstimulierte humane PBL, 37 °C, 2 h
[5] = stimulierte humane PBL, 37 °C, 2 h

Compound: CCCCCCCCCCCCSCC(COP(=O)(O)OC[C@H]1O[C@@H](n2cc(C)c(=O)[nH]c2=O)C[C@@H]1N=[N+]=[N-])OCCCCCCCCCC (some centres unmarked) [AZT-DMDOPE, (3'-Desoxy-3'-azidothymidin)-5'-phosphorsäure-(3-dodecyl-mercapto-2-decyloxy)-propylester]
- höchste spezifische LCE-Aktivität ([1]; Fraktion 8 (plasma membrane enriched) of Percoll gradient, stimulierte humane PBL, 0.05 mg protein/Ansatz, 37 °C, 2 h): 4.40 pmol mg^-1 min^-1 min
- Spezifische Aktivität ([1]; Membranfraktion humaner Monozyten isolated in hypertonic density gradient, linear range): 3.2 + 0.60 pmol mg^-1 min^-1
- Spezifische Aktivität ([1]; Membranfraktion humaner Monozyten/Makrophagen (stimulated by adherence)): 8.8 ± 0.26 pmol/mg/min
- spezifische LCE-Aktivität ([1]; Membranfraktion nichtstimulierter humaner PBL, calculated from linear range): 1.45 ± 0.32 pmol/mg/min
- spezifische LCE-Aktivität ([1]; Membranfraktionen stimulierter humaner PBL, 2 h 37 °C): 14.23 ± 0.70 pmol/mg/min and 14.23 ± 0.7 pmol/mg/min
- AZT-DMDOPE-spaltende Aktivität (spezifische Aktivität des LCE) ([1]; Zellhomogenate stimulierter humaner PBL, 2 h 37 °C): 6.48 ± 0.38 pmol/mg/min
- AZT-DMDOPE-spaltende Aktivität (spezifische Aktivität des LCE) ([1]; Zytosolfraktionen stimulierter humaner PBL, 2 h 37 °C): 1.65 ± 0.40 pmol/mg/min
- spezifische Aktivitäten ([1]; all further fractions of Percoll gradient, stimulierte humane PBL, 0.05 mg protein/Ansatz, 37 °C, 2 h): 1.10 to 1.90 pmol/mg/min
- Km ([1]; humane Monozyten, 37 °C, 2 h): 12.1 ± 4.13 µM
- vmax ([1]; humane Monozyten, 37 °C, 2 h): 1.61 ± 0.37 pmol/mg/min
- Km [1, 3]: 4.63 ± 0.45 µM
- vmax [1, 3]: 9.09 ± 0.44 pmol/mg/min
- Km [1, 4]: 5.51 ± 0.99 µM
- vmax [1, 4]: 2.03 ± 0.19 pmol/mg/min
- Km [1, 5]: 2.26 ± 0.16 µM
- vmax [1, 5]: 15.29 ± 0.37 pmol/mg/min
- Spaltung durch LCE [2]: spaltet
